Assay results taken from ChEMBL document CHEMBL1201862, “PubChem BioAssay data set” (2004).
Blank lines part the entries; values can stand above or below the molecule they belong to. The source made the active and inactive calls.

Columns and labels:
[1] = Luminescence Cell-Based Dose Retest to Confirm Inhibitors of Cancer Stem Cells. [Related pubchem assays (depositor defined):AID2717, AID2721]; assay type: functional; settings: Homo sapiens
[2] = Fluorescence-based cell-based high throughput dose response assay for inhibitors of the interaction of nucleotide-binding oligomerization domain containing 2 (NOD2) and the receptor-interacting serine-threonine kinase 2 (RIPK2).; assay type: functional; settings: Homo sapiens
[3] = viability inhibitors of stage V gametocytes – luminescence, dose response (AID 1117278); assay type: functional, cell-based;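 note: gametocytes exposed to compound for 24 hours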
[4] = viability loss in human Jurkat cells – cell-based, luminescence, cytotoxicity control for P. falciparum gametocyte viability project, dose response (AID 1117277); assay type: functional;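 note: potency reflects loss of cellular ATP meaning fewer viable cells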
[5] = biological target: T1, Sentrin-specific protease 8 (Homo sapiens, UniProt Q96LD8); assay type: functional
T1 sequence (Q96LD8 whole entry): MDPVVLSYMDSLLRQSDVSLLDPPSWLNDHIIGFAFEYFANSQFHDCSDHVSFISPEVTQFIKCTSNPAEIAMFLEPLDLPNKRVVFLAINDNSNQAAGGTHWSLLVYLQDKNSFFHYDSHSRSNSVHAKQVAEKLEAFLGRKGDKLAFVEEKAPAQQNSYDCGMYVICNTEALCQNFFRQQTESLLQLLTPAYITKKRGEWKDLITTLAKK

[6] = biological target: T1, Sentrin-specific protease 8; assay type: functional; remark: listed apart in the source
[7] = biological target: NAD-dependent protein deacylase sirtuin-5, mitochondrial (Homo sapiens, UniProt Q9NXA8); experiment: sirtuin-5 deacylation blockers, concentration series – biochemical, fluorescence imaging, cherry-pick, set 5, dose response (AID 720591);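 note: desuccinylation of succinyl peptide AMC substrate read as fluorescence after trypsin release; potency of inhibitors that lower fluorescence and may act on trypsin instead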
Sequence of NAD-dependent protein deacylase sirtuin-5, mitochondrial (Q9NXA8 whole entry): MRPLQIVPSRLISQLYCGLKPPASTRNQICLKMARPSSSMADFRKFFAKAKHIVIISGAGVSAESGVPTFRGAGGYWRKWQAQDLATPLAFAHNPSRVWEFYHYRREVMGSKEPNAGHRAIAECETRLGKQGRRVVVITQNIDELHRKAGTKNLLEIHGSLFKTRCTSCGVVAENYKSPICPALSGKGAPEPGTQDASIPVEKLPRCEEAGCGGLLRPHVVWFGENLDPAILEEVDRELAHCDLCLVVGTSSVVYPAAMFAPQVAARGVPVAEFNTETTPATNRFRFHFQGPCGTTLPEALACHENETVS

Cysteine protease ATG4B = biological target: T2, Cysteine protease ATG4B (Homo sapiens, UniProt Q9Y4P1); assay type: functional;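 note: Fluorescence-based dose-response confirmation assay measuring inhibition of ATG4B activity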
T2 sequence (Q9Y4P1 whole entry): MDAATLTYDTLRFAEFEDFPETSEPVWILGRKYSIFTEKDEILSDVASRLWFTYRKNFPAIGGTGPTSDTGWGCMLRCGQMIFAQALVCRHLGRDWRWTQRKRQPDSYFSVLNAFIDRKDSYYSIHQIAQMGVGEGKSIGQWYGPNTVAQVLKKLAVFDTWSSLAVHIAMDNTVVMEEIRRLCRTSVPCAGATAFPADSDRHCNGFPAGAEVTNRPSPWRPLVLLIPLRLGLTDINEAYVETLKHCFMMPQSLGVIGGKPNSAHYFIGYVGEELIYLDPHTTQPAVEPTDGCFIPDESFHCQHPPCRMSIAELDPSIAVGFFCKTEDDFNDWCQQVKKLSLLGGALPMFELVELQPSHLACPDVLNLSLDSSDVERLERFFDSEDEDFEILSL

[8] = biological target: Heat shock protein HSP 90-alpha (Homo sapiens, UniProt P07900); assay type: functional, organism-based
Phospholipase A2 = Phospholipase A2 (Homo sapiens, UniProt P04054); assay type: functional;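 note: confirmatory dose-response counterscreen on phospholipase A2, testing hits that came from an ultra-high-throughput screen for ATG4B inhibitors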
Sequence of Phospholipase A2 (P04054 whole entry): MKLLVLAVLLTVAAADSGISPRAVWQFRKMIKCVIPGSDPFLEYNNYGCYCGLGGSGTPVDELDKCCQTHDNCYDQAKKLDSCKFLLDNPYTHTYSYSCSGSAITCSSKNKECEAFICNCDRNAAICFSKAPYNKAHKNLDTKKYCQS

[9] = biological target: T3, Mannose-6-phosphate isomerase (Homo sapiens, UniProt P34949); experiment: MPI inhibition at elevated mannose 6-phosphate – biochemical, fluorescence intensity, high mannose 6-phosphate, primary screen (AID 1220)
T3 sequence (P34949 whole entry): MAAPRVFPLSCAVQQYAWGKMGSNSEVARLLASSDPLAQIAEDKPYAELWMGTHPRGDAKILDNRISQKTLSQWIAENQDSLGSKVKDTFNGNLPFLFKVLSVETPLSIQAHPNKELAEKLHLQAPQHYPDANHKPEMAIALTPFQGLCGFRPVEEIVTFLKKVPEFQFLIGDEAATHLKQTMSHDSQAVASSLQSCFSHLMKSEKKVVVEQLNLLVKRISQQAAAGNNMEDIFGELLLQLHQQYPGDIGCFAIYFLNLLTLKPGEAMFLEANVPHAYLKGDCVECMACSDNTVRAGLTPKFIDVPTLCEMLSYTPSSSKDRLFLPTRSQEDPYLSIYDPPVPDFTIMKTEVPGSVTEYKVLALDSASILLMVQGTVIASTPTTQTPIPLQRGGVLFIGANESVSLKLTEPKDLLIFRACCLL

[10] = biological target: T4, Rac GTPase-activating protein 1 (Homo sapiens, UniProt Q9H0H5); experiment: blockers of MgcRacGAP-driven Rac1 GTP hydrolysis – biochemical, ADP Hunter fluorescence, primary and confirmatory, confirmation (AID 624330); assay type: functional
T4 sequence (Q9H0H5 whole entry): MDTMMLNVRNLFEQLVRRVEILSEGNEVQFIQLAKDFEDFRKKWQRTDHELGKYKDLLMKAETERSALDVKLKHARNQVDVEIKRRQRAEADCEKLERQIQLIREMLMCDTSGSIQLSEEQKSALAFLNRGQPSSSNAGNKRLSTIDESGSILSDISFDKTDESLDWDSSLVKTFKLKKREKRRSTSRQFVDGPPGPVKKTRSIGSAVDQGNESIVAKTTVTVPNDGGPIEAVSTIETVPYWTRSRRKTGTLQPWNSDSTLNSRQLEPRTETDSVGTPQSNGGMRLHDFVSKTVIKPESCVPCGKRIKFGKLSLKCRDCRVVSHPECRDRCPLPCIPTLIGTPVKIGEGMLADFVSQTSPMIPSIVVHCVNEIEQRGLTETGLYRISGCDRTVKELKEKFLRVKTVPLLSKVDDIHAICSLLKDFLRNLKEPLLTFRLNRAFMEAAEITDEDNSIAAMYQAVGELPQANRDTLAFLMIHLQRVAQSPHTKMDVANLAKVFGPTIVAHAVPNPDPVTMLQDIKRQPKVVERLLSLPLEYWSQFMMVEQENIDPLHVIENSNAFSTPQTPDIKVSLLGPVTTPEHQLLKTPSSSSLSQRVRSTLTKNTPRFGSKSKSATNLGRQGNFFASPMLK

HEK293 [11] = experiment: EBV LMP1 TES2 canonical NF-kB signalling blockers – cell-based, HEK293, luciferase, cherry-pick, dose response (AID 588343); assay type: functional; settings: Homo sapiens
HEK293 [12] = experiment: cells; assay type: functional, cell-based; settings: Homo sapiens
[13] = biological target: T5, Nuclear receptor subfamily 0 group B member 1 (Homo sapiens, UniProt P51843); experiment: Luminescence-based cell-based high throughput dose response assay for inhibitors of the orphan nuclear receptor subfamily 0, group B, member 1 (DAX1; NR0B1). [Related pubchem assays (depositor defined):AID504766, AID504790]; assay type: functional
T5 sequence (P51843 whole entry): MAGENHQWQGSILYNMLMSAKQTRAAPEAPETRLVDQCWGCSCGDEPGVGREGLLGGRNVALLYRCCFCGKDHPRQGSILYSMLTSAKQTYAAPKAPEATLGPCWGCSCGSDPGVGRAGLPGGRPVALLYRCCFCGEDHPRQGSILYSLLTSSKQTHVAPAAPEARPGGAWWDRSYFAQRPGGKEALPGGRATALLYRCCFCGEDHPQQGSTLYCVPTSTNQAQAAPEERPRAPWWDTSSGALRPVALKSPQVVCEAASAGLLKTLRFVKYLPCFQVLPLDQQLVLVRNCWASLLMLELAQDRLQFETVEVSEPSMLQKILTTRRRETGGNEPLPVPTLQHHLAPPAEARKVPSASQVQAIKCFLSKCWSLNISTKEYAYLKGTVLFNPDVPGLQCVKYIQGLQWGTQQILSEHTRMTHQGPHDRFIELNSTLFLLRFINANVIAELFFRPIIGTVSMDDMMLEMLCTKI

Structure (SMILES): O=C(CN(c1cccc(C(F)(F)F)c1)S(=O)(=O)c1ccc(Cl)c([N+](=O)[O-])c1)NCc1ccc(F)cc1
AC50 [1]: 1.81 µM (active)
IC50 [2]: 5.86 µM (active)

Structure (SMILES): SC1=NC[C@H](c2ccccc2)N1CCCCC1CCCCC1
IC50 [3]: > 109 µM (inactive)
IC50 [4]: 79.3 µM (inactive)

Structure (SMILES): CCN(CC)CC(=O)Nc1ccc2c(c1)N(C(=O)CN(CC)CC)c1ccccc1CC2
IC50 [5]: 19.1 µM (active)
IC50 [6]: 15.4 µM (active)

AC50 [7]: 22.1 µM (active)
Structure (SMILES): COc1cccc(-n2c(SCC(N)=O)nnc2-c2ccco2)c1

Structure (SMILES): Oc1ccc(N=Nc2nc(-c3ccccc3)c(-c3ccccc3)[nH]2)cc1
AC50 [1]: 3.9 µM (active)
IC50 (Cysteine protease ATG4B): 9.13 µM (active)
AC50 [8]: 4.75 µM (active)
IC50 (Phospholipase A2): 6.36 µM (active)

IC50 [9]: 23.8 µM (active)
IC50 [10]: 29.5 µM (active)
Structure (SMILES): COc1ccc2c(c1)-c1nc(N)sc1CC2

Structure (SMILES): CC(NC(=O)CCc1nnc(CCCc2ccccc2)o1)c1ccccc1 (stereo not given)
IC50 [3]: > 109 µM (inactive)
IC50 [4]: > 83.3 µM (inactive)

Structure (SMILES): Cc1cc(C)nc(N=C(Nc2ccccc2Br)NS(=O)(=O)Cc2ccccc2)n1
AC50 (HEK293 [11]): 33.5 µM (active)

AC50 [8]: 0.786 µM (active)
Structure (SMILES): O=C(Nc1ccccc1)C(Cl)C(=O)c1ccccc1 (stereo not given)

Structure (SMILES): COc1ccc(S(=O)(=O)NCc2ccc(C(=O)NCc3cccnc3)cc2)cc1
IC50 [3]: > 109 µM (inactive)
IC50 [4]: > 83.3 µM (inactive)

Structure (SMILES): O=C(CCc1nc2ccccc2[nH]1)N1CCc2ccccc2C1
IC50 [5]: > 100 µM (inactive)
IC50 [6]: 17.6 µM (active)

Structure (SMILES): O=C(NNC(=O)c1ccccc1O)c1ccc(Br)cc1
IC50 (HEK293 [12]): > 67.5 µM (inactive)
IC50 [13]: > 67.5 µM (inactive)

Structure (SMILES): CCCCC(=O)/N=C(\N)Nc1nc2ccccc2o1
IC50 (HEK293 [12]): > 67.6 µM (inactive)
IC50 [13]: > 67.6 µM (inactive)
